Assay results: patent US12552790B2, “Positive modulators of the muscarinic acetylcholine receptor M4” (Vanderbilt University, priority 2023, dated 2026)

What was measured:
[1] = test system: 68 primary molecular targets; experiment: Eurofins LeadProfilingScreen (binding); details: 10 μM (binding), 68 targets
From the text: The screen includes 68 primary molecular targets, including several CNS targets recommended by the EMEA to evaluate drug dependence potential.

[2] = target: T1, P450 1A2 (Homo sapiens, UniProt P05177); experiment: P450 1A2 inhibition; format: in vitro ADME
T1 sequence (P05177 1-516): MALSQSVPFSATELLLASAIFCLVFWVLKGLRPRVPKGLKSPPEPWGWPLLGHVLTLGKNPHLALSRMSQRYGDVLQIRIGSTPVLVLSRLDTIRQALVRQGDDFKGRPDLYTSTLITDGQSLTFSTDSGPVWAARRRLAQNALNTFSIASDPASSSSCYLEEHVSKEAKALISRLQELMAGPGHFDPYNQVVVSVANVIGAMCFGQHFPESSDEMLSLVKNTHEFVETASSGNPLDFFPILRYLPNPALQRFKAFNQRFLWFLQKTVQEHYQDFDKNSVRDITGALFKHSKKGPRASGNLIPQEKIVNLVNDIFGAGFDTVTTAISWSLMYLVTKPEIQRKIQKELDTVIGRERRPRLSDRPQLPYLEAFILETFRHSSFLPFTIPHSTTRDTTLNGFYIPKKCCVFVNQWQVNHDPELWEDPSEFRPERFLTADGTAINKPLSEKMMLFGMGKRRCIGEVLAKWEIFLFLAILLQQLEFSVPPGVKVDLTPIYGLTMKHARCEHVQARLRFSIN
From the text: (§1) Compounds may be tested in in vitro assays to investigate both metabolism and pharmacokinetics. These assays may be performed according to known methods as generally described in the following references: Conde-Ceide et al. ACS Med. Chem. Lett. 2015, 6, 716-720; Morris et al. J. Med. Chem. 2014, 57, 10192-10197; and Bubser et al. ACS Chem. Neurosci. 2014, 5, 920-942.

[3] = Human intrinsic clearance; format: in vitro ADME
From the text: as §1

[4] = test system: amphetamine-induced hyperlocomotion in male Sprague-Dawley rats; experiment: Amphetamine-induced hyperlocomotion in rats; format: in vivo; details: rat; for percent reversal of amphetamine-induced hyperlocomotion: amphetamine 0.75 mg/kg s.c.
Description: Drugs: d-Amphetamine hemisulfate was obtained from Sigma (St. Louis, MO). Salt-correction was used to determine the correct amount of the d-amphetamine hemisulfate form in milligrams to add to sterile water in order to yield a 0.75 mg/mL solution, which would be dosed at 1 mL/kg body weight of each animal. […] The solutions were formulated so that animals were injected with a volume equal to 10 mL/kg body weight for all compounds. The appropriate amount according to the dosage was mixed in 10% Tween 80 (Sigma) in sterile water. The mixtures were then vortexed and stored in a 39° C. sonication bath for 1 hour, until in a solution or microsuspension (depending on dose).
Animals: Male Sprague-Dawley rats weighing 239-300 grams and averaging 265 g (Harlan, Inc., Indianapolis, IN) were used. They were housed in the animal care facility certified by the American Association for the Accreditation of Laboratory Animal Care (AALAC) under a 12-hour light/dark cycle (lights on: 6 a.m.; lights off: 6 p.m.) and had free access to food and water. The animals used in this experiment were food-deprived the evening before experimentation for oral dosing of compound/vehicle. The experimental protocols performed during the light cycle were approved by the Institutional Animals Care and Use Committee of Vanderbilt University and conformed to the guidelines established by the National Research Council Guide for the Care and Use of Laboratory Animals.
Amphetamine-induced Hyperlocomotion: Male Harlan Sprague Dawley rats were habituated in Smart Open Field locomotor activity test chambers (Hamilton-Kinder, San Diego, CA) with 16×16 photo beams to automatically record locomotor activity. […] They were monitored for an additional 30 minutes and then injected subcutaneously with vehicle or 0.75 mg/kg amphetamine. Animals were then monitored for an additional 60 minutes, for a total of 120 minutes. Data were expressed as changes in ambulation defined as total number of beam breaks per 5 minute interval. Terminal brain and plasma samples were collected at the end of the study for pharmacokinetic analysis.
Data Analysis: Behavioral data were analyzed using a two-way ANOVA with main effects of treatment and time. Post hoc analysis was performed using a Dunnett's t-test with all treatment groups compared to the Vehicle/amphetamine group (VAMP) group using GraphPad Prism V.5.04 (GraphPad Software, San Diego, CA). Data were graphed using GraphPad Prism V.5.04 (GraphPad Software, San Diego, CA). A probability of p≤0.05 was taken as the level of statistical significance. In addition, the total number of beam breaks from the amphetamine administration (65 min) to the end of the study (120 min) was calculated and graphed. Percent Reversal was calculated as follows using Microsoft Excel: In each animal, total ambulation from t=65 to t=120 was summed. The mean of each sum was calculated in the VAMP group. Then, for each animal, Percent Reversal was calculated with the following formula: Percent Reversal=100−{[(total ambulation in each animal from t=65 to t=120)/(mean of each sum from t=65 to t=120 in VAMP group)]*100}. The mean Percent Reversal, as well as the standard error, was calculated for each dose group using GraphPad Prism V5.04.

[5] = In vivo pharmacokinetic study in dog
[6] = target: P450 2C9 (Homo sapiens, UniProt P11712); experiment: P450 2C9 inhibition; format: in vitro ADME
Sequence of P450 2C9 (P11712 whole entry): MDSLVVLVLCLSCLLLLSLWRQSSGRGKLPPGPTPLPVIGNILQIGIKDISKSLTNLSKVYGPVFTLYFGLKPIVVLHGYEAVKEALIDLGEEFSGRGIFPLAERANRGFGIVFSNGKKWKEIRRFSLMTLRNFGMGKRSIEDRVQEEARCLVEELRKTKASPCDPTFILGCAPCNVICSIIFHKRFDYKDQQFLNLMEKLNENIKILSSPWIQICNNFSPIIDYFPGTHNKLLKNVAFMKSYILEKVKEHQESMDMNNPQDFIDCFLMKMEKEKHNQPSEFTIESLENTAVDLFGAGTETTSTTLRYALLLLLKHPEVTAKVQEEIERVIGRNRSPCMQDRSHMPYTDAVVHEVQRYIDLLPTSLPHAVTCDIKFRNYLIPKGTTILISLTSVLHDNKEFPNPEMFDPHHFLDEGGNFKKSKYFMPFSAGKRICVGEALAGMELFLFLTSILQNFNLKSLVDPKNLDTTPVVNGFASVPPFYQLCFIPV
From the text: as §1

[7] = test system: MDCK-MDR1; experiment: MDCK-MDR1 efflux ratio and permeability; format: in vitro ADME; details: efflux ratio
From the text: as §1

[8] = MDCK-MDR1 efflux ratio and permeability; format: in vitro ADME; details: dog, MDCK-MDR1
From the text: as §1

[9] = Dog intrinsic clearance; format: in vitro ADME
From the text: as §1

inhibition of each target in the LeadProfilingScreen [1]: < 50%
IC50 [2]: > 100 µM
CLint scaled [3]: 15 mL/min/kg
Dog oral F ([5]; 3 mg/kg oral): 89%
clearance ([5]; plasma, read-out: Dog CLp): 1.8 mL/min/kg
half-life ([5]; plasma, read-out: Dog Elim. t1/2 (converted)): 7.6 h
Vd ([5]; plasma, read-out: Dog Vss): 1 L/kg
IC50 [6]: > 100 µM
MDCK-MDR1 ER [7]: 1.3
Papp A→B [8]: 45.5 ×10⁻⁶ cm/s
CLint scaled [9]: 19 mL/min/kg
SMILES: [2H]C1([2H])Oc2ccc(OC3CCN(c4nc5c(cc4C)C(=O)NC5)CC3)cc2OC1([2H])[2H] [Compound 3, 2-(4-((2,3-dihydrobenzo[b][1,4]dioxin-6-yl-2,2,3,3-d4)oxy)piperidin-1-yl)-3-methyl-6,7-dihydro-5H-pyrrolo[3,4-b]pyridin-5-one]
percent reversal of amphetamine-induced hyperlocomotion ([4]; 1 mg/kg oral gavage): 27.5%
percent reversal of amphetamine-induced hyperlocomotion ([4]; 1.8 mg/kg oral gavage): 40.1%
percent reversal of amphetamine-induced hyperlocomotion ([4]; 3 mg/kg oral gavage): 59.1%
percent reversal of amphetamine-induced hyperlocomotion ([4]; 5.6 mg/kg oral gavage): 60.9%
reversal of amphetamine-induced hyperlocomotion (in words) ([4]; systemic administration): significant and sustained reversal
